Assays:
[1] = system: control sera (pooled serum of ten healthy LUMC hospital workers; commercial negative donor pooled serum from the Dutch bloodbank); type: binding, human; parameters: Binding of Control serum LUMC to linear peptides / Binding of Control serum Blood-bank to linear peptides / Binding of Control serum LUMC to looped peptides / Binding of Control Serum Blood-Bank to Looped peptides / Binding of Control serum LUMC to linear peptides of the protein M of SARS-CoV Urbani / Binding of Control serum Blood-bank to linear peptides of the protein M of SARS-CoV Urbani / Binding of Control serum LUMC to looped peptides of the protein M of SARS-CoV Urbani / Binding of Control Serum Blood-Bank to Looped peptides of the protein M of SARS-CoV Urbani: unit not given here
[2] = system: antibodies in sera from SARS patients (sera 1a, 1b, 2, 6, 37, 62, London, SARS-yellow, SARS-green); type: binding, human; parameters: Binding of serum 6 to linear peptides of protein X1 of SARS-CoV Urbani / Binding of serum 37 to linear peptides of protein X1 of SARS-CoV Urbani / Binding of serum 6 to looped/cyclic peptide (PEPSCAN-ELISA) / Binding of serum 37 to looped/cyclic peptide (PEPSCAN-ELISA) / Binding of serum 37 to looped/cyclic peptides of protein X1 of SARS-CoV Urbani / Binding of serum 6 to linear peptides of protein X2 / Binding of serum 37 to linear peptides of protein X2 / Binding of serum 37 to looped/cyclic peptides of protein X2 of SARS-CoV Urbani / Binding of serum 6 to linear peptides of protein M of SARS-CoV Urbani / Binding of serum 37 to linear peptides of protein M of SARS-CoV Urbani / Binding of serum 6 to looped/cyclic peptides of protein M of SARS-CoV Urbani / Binding of serum 37 to looped/cyclic peptides of protein M of SARS-CoV Urbani / Binding of serum 6 to linear peptides of protein X3 of SARS-CoV Urbani / Binding of serum 37 to linear peptides of protein X3 of SARS-CoV Urbani / Binding of serum 37 to looped/cyclic peptides of protein X3 of SARS-CoV Urbani / Binding of serum 6 to linear peptides of protein X4 of SARS-CoV Urbani / Binding of serum 37 to linear peptides of protein X4 of SARS-CoV Urbani / Binding of serum 37 to looped/cyclic peptides of protein X4 of SARS-CoV Urbani / Binding of serum 6 to linear peptides of protein X5 of SARS-CoV Urbani / Binding of serum 37 to linear peptides of protein X5 of SARS-CoV Urbani / Binding of serum 37 to looped/cyclic peptides of protein X5 of SARS-CoV Urbani / Binding of serum 6 to linear peptides of protein N of SARS-CoV Urbani / Binding of serum 37 to linear peptides of protein N of SARS-CoV Urbani / Binding of serum 6 to linear peptide (PEPSCAN-ELISA) / Binding of serum 1a to looped/cyclic peptides of protein N of SARS-CoV Urbani / Binding of serum 1b to looped/cyclic peptides of protein N of SARS-CoV Urbani / Binding of serum 2 to looped/cyclic peptides of protein N of SARS-CoV Urbani / Binding of serum 6 to looped/cyclic peptides of protein N of SARS-CoV Urbani / Binding of serum 37 to looped/cyclic peptides of protein N of SARS-CoV Urbani / Binding of serum 62 to looped/cyclic peptides of protein N of SARS-CoV Urbani / Binding of serum London to looped/cyclic peptides of protein N of SARS-CoV Urbani / Binding of serum SARS-green to looped/cyclic peptides of protein N of SARS-CoV Urbani: unit not given here
[3] = system: rabbit serum obtained by immunizing a rabbit with the SARS-CoV strain Frankfurt 1; type: binding; parameters: Binding of a rabbit serum to linear peptides / Binding of a rabbit serum to looped peptides / Rabbit serum linear peptides / Rabbit serum looped peptides / Binding of a rabbit serum to linear peptides of protein N of SARS-CoV Urbani (Rabbit serum linear peptides) / Binding of a rabbit serum to looped/cyclic peptides of protein N of SARS-CoV Urbani (Rabbit serum looped peptides): unit not given here

VSPKLFIRQEEVQQE
Binding of Control Serum Blood-Bank to Looped peptides [1]: 0.4 | Binding of Control serum Blood-bank to linear peptides [1]: 0.5 | Binding of Control serum LUMC to linear peptides [1]: 0.4 | Binding of Control serum LUMC to looped peptides [1]: 0.7 | Binding of serum 1a to linear peptides of protein X4 of SARS-CoV Urbani [2]: 0.7 | Binding of serum 1a to looped/cyclic peptides of protein X4 of SARS-CoV Urbani [2]: 0.6 | Binding of serum 1b to linear peptides of protein X4 of SARS-CoV Urbani [2]: 0.5 | Binding of serum 1b to looped/cyclic peptides of protein X4 of SARS-CoV Urbani [2]: 1.0 | Binding of serum 2 to linear peptides of protein X4 of SARS-CoV Urbani [2]: 0.3 | Binding of serum 2 to looped/cyclic peptides of protein X4 of SARS-CoV Urbani [2]: 0.8 | Binding of serum 6 to linear peptides of protein X4 of SARS-CoV Urbani [2]: 0.3 | Binding of serum 6 to looped/cyclic peptides of protein X4 of SARS-CoV Urbani [2]: 0.4 | Binding of serum 37 to linear peptides of protein X4 of SARS-CoV Urbani [2]: 0.7 | Binding of serum 37 to looped/cyclic peptides of protein X4 of SARS-CoV Urbani [2]: 0.9 | Binding of serum 62 to linear peptides of protein X4 of SARS-CoV Urbani [2]: 0.7 | Binding of serum 62 to looped/cyclic peptides of protein X4 of SARS-CoV Urbani [2]: 0.8 | Binding of serum London to linear peptides of protein X4 of SARS-CoV Urbani [2]: 0.8 | Binding of serum London to looped/cyclic peptides of protein X4 of SARS-CoV Urbani [2]: 0.6 | Binding of serum SARS-green to linear peptides of protein X4 of SARS-CoV Urbani [2]: 0.6 | Binding of serum SARS-green to looped/cyclic peptides of protein X4 of SARS-CoV Urbani [2]: 1.2 | Binding of serum SARS-yellow to linear peptides of protein X4 of SARS-CoV Urbani [2]: 0.3 | Binding of serum SARS-yellow to looped/cyclic peptides of protein X4 of SARS-CoV Urbani [2]: 0.5 | Rabbit serum linear peptides [3]: 0.4 | Rabbit serum looped peptides [3]: 0.3

VHGYFTEVYYQLEST
Binding of Control Serum Blood-Bank to Looped peptides [1]: 0.5 | Binding of Control serum Blood-bank to linear peptides [1]: 0.4 | Binding of Control serum LUMC to linear peptides [1]: 0.5 | Binding of Control serum LUMC to looped peptides [1]: 0.7 | Binding of serum 1a to linear peptides of protein X1 of SARS-CoV Urbani [2]: 0.7 | Binding of serum 1a to looped/cyclic peptides of protein X1 of SARS-CoV Urbani [2]: 0.5 | Binding of serum 1b to linear peptides of protein X1 of SARS-CoV Urbani [2]: 0.5 | Binding of serum 1b to looped/cyclic peptides of protein X1 of SARS-CoV Urbani [2]: 0.4 | Binding of serum 2 to linear peptides of protein X1 of SARS-CoV Urbani [2]: 0.4 | Binding of serum 2 to looped/cyclic peptides of protein X1 of SARS-CoV Urbani [2]: 0.5 | Binding of serum 6 to linear peptides of protein X1 of SARS-CoV Urbani [2]: 0.4 | Binding of serum 6 to looped/cyclic peptides of protein X1 of SARS-CoV Urbani [2]: 0.3 | Binding of serum 37 to linear peptides of protein X1 of SARS-CoV Urbani [2]: 0.4 | Binding of serum 37 to looped/cyclic peptides of protein X1 of SARS-CoV Urbani [2]: 0.5 | Binding of serum 62 to linear peptides of protein X1 of SARS-CoV Urbani [2]: 0.3 | Binding of serum 62 to looped/cyclic peptides of protein X1 of SARS-CoV Urbani [2]: 0.6 | Binding of serum London to linear peptides of protein X1 of SARS-CoV Urbani [2]: 0.2 | Binding of serum London to looped/cyclic peptides of protein X1 of SARS-CoV Urbani [2]: 0.2 | Binding of serum SARS-green to linear peptides of protein X1 of SARS-CoV Urbani [2]: 0.1 | Binding of serum SARS-green to looped/cyclic peptides of protein X1 of SARS-CoV Urbani [2]: 0.3 | Binding of serum SARS-yellow to linear peptides of protein X1 of SARS-CoV Urbani [2]: 0.3 | Binding of serum SARS-yellow to looped/cyclic peptides of protein X1 of SARS-CoV Urbani [2]: 0.5 | Binding of a rabbit serum to linear peptides [3]: 0.1 | Binding of a rabbit serum to looped peptides [3]: 0.6
